What was measured:
tRXRα [1] = assay: Nuclear/cytoplasmic fractionation with BS3 crosslinking; format: cell-based; conditions: HEK293T cells, K-80003 (5 × 10^−6 M) for 6 h, one of three similar experiments
Method: (§1) Cell lysates were then prepared and incubated with bis[sulfosuccinimidyl] suberate (BS3, Pierce) dissolved in dimethyl sulfoxide to a final concentration of 1 mM. The reactions were stopped with protein gel loading buffer. Samples were resolved by SDS/PAGE in 8% acrylamide gels and protein bands were visualized by western blotting.
(§2) Proteins or cell lysates were electrophoresed by SDS-PAGE gel and transferred to polyvinylidene difluoride (PVDF) membrane. The membranes were blocked with 5% skimmed milk in TBST (50 mM Tris-HCl (pH 7.4), 150 mM NaCl and 0.1% Tween20) for 1 h, then incubated with primary antibodies and secondary antibodies and detected using ECL system (Thermo). The dilutions of the primary antibodies were anti-RXRα (ΔN197, Santa Cruz) in 1:1,000, anti-PARP (H-250, Santa Cruz) in 1:3,000, anti-p85α (Millipore) in 1:1,000, anti-p-AKT (D9E, Cell Signaling Technology) in 1:1000, anti-AKT1/2/3 (H-136, Santa Cruz) in 1:1,000, anti-β-actin (Sigma) in 1:5,000, anti-c-myc (9E10, Santa Cruz) in 1:3,000, anti-HA (F-7, Santa Cruz) in 1:3,000, anti-Flag (F1804, Sigma) in 1:3,000. Images of all uncropped western blots can be found in Supplementary Figs 10–14.

PyMT mammary tumour = assay: MMTV-PyMT transgenic mice, mammary tumour; format: in vivo; conditions: 4-week old MMTV-PyMT mice; diet with K-80003 (100 mg kg^−1) for 4 weeks
Method: (§3) For nude mice xenograft study, Myc-RXRα and Myc-tRXRα cloned into pcdna3.0 vector were stably transfected into MCF-7 cells, and the resulting stable clones and control clone (2 × 10^6 cells in 100 μl) were injected subcutaneously into nude mice (BALB/c, SPF grade, 16–18 g, 4–5-week old). For drug treatment, mice were intraperitoneally injected (i.p.) daily with K-80003 (20 mg kg^−1) diluted in Tween-80 or vehicle (tween-80). Body weight and tumour size were measured every 2 days. Mice were killed after 12-day drug treatment and the tumours removed for various assessments. For MMTV-PyMT transgenic mouse study, 4-week old female mice of a transgenic mouse on the FVB/N genetic background expressing the PyMT oncogene under the control of MMTV LTR promoter[40] were fed with diet containing with or without K-80003 (100 mg kg^−1) for 4 weeks. Estimation of tumour appearance was performed by palpation once every day. Tumour tissues of left thoracic mammary glands were excised after the treatment. Portion of tissues was used to prepare extracts for western blotting, while the rest was fixed in 4% phosphate-buffered paraformaldehyde, and used for immunohistochemical staining using anti-Ki67 antibody and immunostaining using Δ197 anti-RXRα antibody. All experimentations and animal usage were performed and approved by the Animal Care and Use Committee of Xiamen University.

MCF-7/tRXRα tumour = assay: MCF-7/tRXRα xenograft in nude mice, tumour growth; format: in vivo; conditions: K-80003 20 mg kg^−1 i.p. daily for 12 days, n=6 in each group
Method: as §3

tRXRα/F313A = assay: BS3 crosslinking, tRXRα/F313A; format: cell-based; conditions: MCF-7 cells, 9-cis-RA (10^−7 M) or K-80003 (5 × 10^−6 M) for 6 h
Method: as §1

tRXRα/L433D = assay: Subcellular localization of tRXRα/L433D, immunostaining; format: cell-based; conditions: MCF-7 cells; K-80003 (5 × 10^−6 M) for 3 h, then TNFα (10 ng ml^−1) for 30 min
Method: (§4) Cells mounted on glass slides or tumour tissue frozen sections (5-μm-thick) were washed with PBS and fixed in 4% paraformaldehyde (PFA) for 15 min and permeabilized with PBS containing 0.1% Triton X-100 for 15 min. Fixed cells or tumour tissues were blocked with 5 mg ml^−1 BSA in PBS for 30 min at room temperature, followed with incubation with primary antibodies for 3 h and secondary antibodies at room temperature for 1 h and co-stained with 4′6′-diamidino-2-phenylindole (DAPI) to visualize nuclei. The images were taken under an LSM-510 confocal laser scanning microscope system (Carl Zeiss).

MMTV-PyMT mammary tumour = assay: MMTV-PyMT tumours, western blotting; format: in vivo, MMTV-PyMT mice; conditions: diet with K-80003 (100 mg kg^−1) for 4 weeks
Method: as §2
(§5) For nude mice xenograft study, Myc-RXRα and Myc-tRXRα cloned into pcdna3.0 vector were stably transfected into MCF-7 cells, and the resulting stable clones and control clone (2 × 10^6 cells in 100 μl) were injected subcutaneously into nude mice (BALB/c, SPF grade, 16–18 g, 4–5-week old). For drug treatment, mice were intraperitoneally injected (i.p.) daily with K-80003 (20 mg kg^−1) diluted in Tween-80 or vehicle (tween-80). Body weight and tumour size were measured every 2 days. […]

tRXRα [2] = tested on: tRXRα; design: method as in PMID 20541701; conditions: cited from earlier work
tRXRα/R316E = assay: BS3 crosslinking, tRXRα/R316E; format: cell-based; conditions: MCF-7 cells, 9-cis-RA (10^−7 M) or K-80003 (5 × 10^−6 M) for 6 h
Method: as §1

PI3K signalling = tested on: PI3K signalling; design: method as in PMID 20541701; conditions: cited from earlier work
RXRα-LBD = assay: BS3 crosslinking, transfected RXRα-LBD; format: cell-based; conditions: HepG2 cells; 9-cis-RA (10^−7 M) or K-80003 (5 × 10^−6 M) for 6 h; BS3 1 mM; western blotting
Method: as §1

[3] = tested on: p85α / tRXRα/R316E interaction; assay: coIP, p85α with tRXRα/R316E; format: cell-based; conditions: HEK293T cells; K-80003 (5 × 10^−6 M) for 6 h; coIP anti-HA
Method: (§6) For coIP assay[29], HEK293T cells grown in 10 cm dishes were transfected with various plasmids. Cells were lysed in 1 ml of lysis buffer (20 mM Tris (pH 7.5), 150 mM NaCl, 1% Triton X-100, 1 mM EDTA, 30 mM NaF, 2 mM sodium pyrophosphate) with a cocktail of proteinase inhibitors (Roche). Lysates were incubated with the appropriate antibody for 12 h at 4 °C and subsequently incubated with protein A-Sepharose beads for 1 h. The immunoprecipitates were collected and washed three times with lysis buffer. The protein–antibody complexes recovered on beads were subjected to immunoblotting using appropriate antibodies after separation by SDS-PAGE. Input represents 5% of cell lysates used for coIP assays.

tRXRα [4] = assay: Subcellular localization of tRXRα, immunostaining; format: cell-based; conditions: MCF-7 cells; K-80003 (5 × 10^−6 M) for 3 h, then TNFα (10 ng ml^−1) for 30 min
Method: as §4

MCF-7 xenograft tumours = assay: MCF-7/tRXRα xenograft tumours, western blotting; format: in vivo, nude mice; conditions: MCF-7/tRXRα tumour; K-80003 20 mg kg^−1 i.p., 12 days
Method: as §2, §5

p85α / tRXRα interaction = assay: coIP, p85α with tRXRα; format: cell-based; conditions: conclusion from structure and crosslinking
Method: as §6

CC1=C(CC(=O)O)c2cc(F)ccc2/C1=C\c1ccc(C(C)C)cc1 [K-80003]
distribution of tetrameric tRXRα (tRXRα [1]): found exclusively in the nuclear fraction
growth of PyMT mammary tumour (PyMT mammary tumour): potently inhibited the growth of PyMT mammary tumour
effect on tRXRα-promoted growth of MCF-7 tumour (MCF-7/tRXRα tumour): suppressed
oligomeric state of tRXRα/F313A (tRXRα/F313A): strong tetrameric species of tRXRα/R316E but not tRXRα/F313A independent of the presence of 9-cis-RA or K-80003
effect on cytoplasmic colocalization of p85α with tRXRα/L433D (tRXRα/L433D): not affected by K-80003
PARP cleavage in PyMT tumours (MMTV-PyMT mammary tumour): induction of PARP cleavage
cyclin D expression in PyMT tumours (MMTV-PyMT mammary tumour): inhibition of cyclin D expression
binding to tRXRα (tRXRα [2]): binds to tRXRα
oligomeric state of tRXRα/R316E (tRXRα/R316E): strong tetrameric species of tRXRα/R316E but not tRXRα/F313A independent of the presence of 9-cis-RA or K-80003
inhibition of activation of PI3K signalling (PI3K signalling): inhibits its interaction with p85α and activation of PI3K signalling
crosslinked RXRα-LBD species (RXRα-LBD): crosslinked species on SDS-PAGE gels of 25, 50 and 100 kDa, corresponding to monomer, dimer and tetramer of RXRα-LBD
modulation of tRXRα/R316E interaction with p85α [3]: failed to modulate the interaction of both mutants with p85α
effect on TNFα-induced cytoplasmic colocalization of tRXRα with p85α (tRXRα [4]): inhibited, resulting in tRXRα nuclear localization
AKT activation in tumours (MCF-7 xenograft tumours): reduced AKT activation
PARP cleavage in tumours (MCF-7 xenograft tumours): enhanced PARP cleavage
inhibition of tRXRα interaction with p85α (p85α / tRXRα interaction): inhibits tRXRα interaction with p85α by promoting tRXRα tetramerization
